The record followed here is BindingDB's records for doi:10.1016/0960-894X(96)00018-2 (1996).

Some results are limits rather than exact numbers.

In the test the target is T1, Prostatic acid phosphatase (Homo sapiens, UniProt P15309).
T1 sequence (P15309 whole entry): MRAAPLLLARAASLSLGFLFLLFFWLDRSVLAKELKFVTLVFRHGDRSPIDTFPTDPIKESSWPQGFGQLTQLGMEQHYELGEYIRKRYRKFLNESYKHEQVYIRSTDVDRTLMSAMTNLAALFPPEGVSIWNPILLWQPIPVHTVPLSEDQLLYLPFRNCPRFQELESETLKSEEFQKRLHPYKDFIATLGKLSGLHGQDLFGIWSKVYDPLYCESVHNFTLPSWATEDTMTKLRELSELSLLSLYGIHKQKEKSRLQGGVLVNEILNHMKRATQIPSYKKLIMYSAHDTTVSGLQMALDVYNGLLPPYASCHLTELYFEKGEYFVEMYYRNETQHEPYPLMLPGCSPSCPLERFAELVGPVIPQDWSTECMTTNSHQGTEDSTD
Nature of the test: ChEBML_158626. The method, then: Inhibition of human prostatic acid phosphatase was determined as inhibition of the hydrolysis of tyrosine phosphate

Take `OP(O)(O)=c1c2ccccc2ccc2ccccc12` [(5H-Dibenzo[a,d]cyclohepten-5-yl)-phosphonic acid]: the 50% inhibitory concentration (IC50) (in general, the point on the concentration scale where inhibition reaches its midpoint) is over 100 µM.

Take `OP(O)(O)=c1c2ccccc2sc2ccccc12` [(9H-Thioxanthen-9-yl)-phosphonic acid]: the 50% inhibitory concentration (IC50) is over 100 µM.
